Here are results for 89 compounds from a melting point compilation (Tetko et al.; mined from patent text by program, amines drawn as free bases though some values may be those of a salt).

The compound `NC(=O)c1nnc2n1-c1sc(Cl)cc1C(c1ccccc1Cl)=NC2` yielded a melting point of 248 to 251 °C.

With `CN(CCSC(=O)Cc1ccccc1Nc1c(Cl)cccc1Cl)CC1(SN=O)CCCCC1`, the melting point was in the range of 115 to 129 °C.

`Cc1ccc(-c2cccc(/C=C/C(=O)Nc3ccc(CN4CCN(Cc5ccc6c(c5)OCO6)CC4)cc3)c2)cc1` registered a melting point of 204 to 207 °C.

`COc1cccc(/C=C/c2cccc(C(=O)O)c2)c1` showed a melting point of 195 to 198 °C.

For the compound `CNC(=O)c1ccc(C(=O)OC)cc1`, the melting point turned out to be 126 °C.

The compound `COC1(C(=O)O)C=CC(OCc2ccccc2)=CC1` (centres undefined) came in with a melting point of 172 to 173 °C.

`CC(C)=CCOc1ccc(OCC=C(C)C)c(C(=O)NCCc2ccncc2)c1`: the melting point lay within 92.7 to 93.5 °C.

Consider `N#Cc1cc2c(cc1F)OCC21C(=O)N(Cc2ncccc2C(F)(F)F)c2ccccc21` (centres undefined), for which the melting point lay in the range of 209 to 211 °C.

`COC1=NC(=O)N(C)S(=O)(=O)N1` displayed a melting point of 195 to 199 °C.

As to `COCC1(C)CC(=O)c2cc(C#N)ccc2O1` (centres undefined), the melting point lay in the range of 79 to 81 °C.

`COC(=O)c1c(Cl)cc(Cl)cc1NC(=O)CSc1cccc(OC)c1` gave a melting point of 89 to 90 °C.

`O=C1c2ccccc2C(=O)N1OCC1OC(n2ccc(=O)[nH]c2=O)CC1O` (centres undefined) yielded a melting point of 241 to 242 °C.

Compound `C1=C(CCc2ccccc2)CCN(Cc2c[nH]c3ccccc23)C1` gave a melting point of 138 to 140 °C.

For `CC(C)(C)OC(=O)Nc1ccsc1CC(=O)O`, the melting point was in the range of 70 to 72 °C.

Compound `CCN(CC)C(=O)C=Cc1cccc([N+](=O)[O-])c1C` had a melting point of 74.3 °C.

The compound `CC1(C(F)(F)F)NC(c2ncccc2C(=O)O)=NC1=O` (centres undefined) yielded a melting point of 180 to 184 °C.

As for `O=C(Cc1ncc[nH]1)c1ccc2ccccc2c1`, the melting point was 125 to 126 °C.

For the compound `COC(=O)c1cc2c(Br)csc2nc1C(=O)OC`, the melting point lay within 86 to 87.5 °C.

With `C=C1c2c(ccc(OC(C)=O)c2OC(C)=O)C(=O)N2CCCCC12` (centres undefined), the melting point was in the range of 129 to 132 °C.

For `O=C1c2ccc(C#Cc3ccccc3)cc2C(=O)N1c1ccc2c(c1)C=C2`, the melting point was in the range of 194 to 195 °C.

The compound `CC(=O)C1=C(O)c2c(c3ccccc3n2C)S(=O)(=O)N1` came in with a melting point of 210 to 211 °C.

In turn, `COc1ccc2c3c([nH]c2c1)C(=S)C(CC1CCN(Cc2ccccc2)CC1)C3` (centres undefined) came in with a melting point of 180 to 181 °C.

The compound `C#CCn1c(-c2ccccc2)nc(O)c(CC)c1=O` came in with a melting point of 159 to 160 °C.

The compound `Cn1c(-c2ccc(-c3ccccc3)cc2)cnc1[C@H](Cc1ccccn1)N(C=O)c1cc2cc(Br)ccc2o1` had a melting point of 180 to 182 °C.

Compound `COCCN1CCc2cc(Nc3ncc(Cl)c(NC4(C(=O)NCC#N)CC4)n3)c(OC)cc2CC1` showed a melting point of 187 to 189 °C.

As to `Cc1c(-c2ccc(=O)n(C)c2)cccc1[N+](=O)[O-]`, the melting point was 157 to 159 °C.

Consider `Cn1nnnc1-c1cn(C)c2cc(N3CCCCC3)ccc2c1=O`, for which the melting point was in the range of 180 to 183 °C.

`CN(C)N=C(N)Nc1c(Cl)cccc1Cl`: the melting point was above 280 °C.

For `CC1(C)COc2cc(O)c(C=O)cc21`, the melting point is 100 to 102 °C.

`O=C(O)[C@@H]1C[C@@H](O)CN1CCO` returned a melting point of 202 to 204 °C.

Compound `CN(CC(=O)C(Cc1ccccc1)NC(=O)c1ccccc1)C(=O)N1CCCC1C(=O)O` (centres undefined) registered a melting point of 60 to 82 °C.

Turning to `CC(C)(C)CNc1nc(C#Cc2ccccc2)ccc1[N+](=O)[O-]`, the melting point fell in the range of 90 to 92 °C.

In the case of `Cc1ccn(-c2ccc(C(=O)C3c4ccccc4NC=C4N=NNN43)c(Cl)c2)n1` (centres undefined), the melting point is 110 to 114 °C.

`O=S(=O)(O)CCCNC1CCCCCC1` came in with a melting point of 341 to 343 °C.

In turn, `COc1cc(Nc2nccc(Nc3ccccc3)n2)cc(OC)c1OC` displayed a melting point of 186 °C.

For the compound `COCCCN1CC(=O)c2cc(Cl)sc2S1(=O)=O`, the melting point is 48 to 52 °C.

`CN(CCCCNC(=NCCCOc1cccc(CN2CCCCC2)c1)NC#N)CCN(Cc1ccc(F)cc1)c1ccccn1` came in with a melting point of 84 to 86 °C.

As to `COCc1ccc(O)cc1`, the melting point fell in the range of 79 to 80 °C.

The compound `COc1cc(OC)c2cc(-c3ccccc3)c(=O)[nH]c2c1` had a melting point of 257 to 258 °C.

For the compound `CC(=O)OCC(=O)C1C(C)CC2C3C=C(Cl)C4=CC(=O)C=CC4(C)C3C(O)CC21C` (centres undefined), the melting point is 192 °C.

On to `COc1cc(OC)nc(Oc2cccc(Cl)c2NS(C)(=O)=O)n1`, for which the melting point fell in the range of 147 to 148 °C.

Consider `O=C(O)c1cc2ccc3[nH]ccc3c2[nH]1`, for which the melting point is 248 to 250 °C.

For `CN1CCC(OC(c2cccc(-c3ccn[nH]3)c2)c2nc3ccccc3s2)CC1` (centres undefined), the melting point turned out to be 90 °C.

For the compound `CC(=O)NC[C@H]1CN(c2cc(F)c(N3CCC(Cc4nnn[nH]4)CC3)c(F)c2)C(=O)O1`, the melting point fell in the range of 176 to 178 °C.

The compound `CC(C)(C)c1ccc(-c2csc(-c3cccc(C(=O)O)c3)n2)cc1` had a melting point of 250 to 251 °C.

With `O=C(OCC1CC1)c1ncn2c1[C@@H]1CCCN1C(=O)c1cc(Cl)ccc1-2`, the melting point lay in the range of 146 to 148 °C.

For the compound `COc1ccc(Cc2cc(C(C)(C)C)c(O)c(C(C)(C)C)c2)cc1`, the melting point worked out at 139 °C.

For the compound `CCOc1nc2cccc(C(=O)O)c2n1Cc1ccc(-c2ccccc2C(=O)O)cc1`, the melting point fell in the range of 213 to 215 °C.

In turn, `CCCC(=O)N(C)SN(C(=O)NC(=O)c1c(F)cccc1F)c1ccc(Oc2ccc(C(F)(F)F)cc2Cl)cc1F` came in with a melting point of 136 to 138 °C.

As to `O=C(c1c[nH]c2ccc(Br)cc12)[C@H]1CCCN1C(=O)OCc1ccccc1`, the melting point was 95 to 96 °C.

As to `C[Si](C)(C)CCCCCCCCCCCCCCNc1ccc(C(=O)O)cc1`, the melting point was in the range of 105 to 107 °C.

Compound `CCCCCN1Cc2cccc(Cl)c2S1(=O)=O` registered a melting point of 46 to 48 °C.

On to `CCCC(=O)Oc1ccc(C)cc1[C@H](CCN(C(C)C)C(C)C)c1ccccc1`, for which the melting point is 116 to 119 °C.

The compound `N=C(Nc1ccccc1)Nc1ncccc1OCc1c(Cl)cccc1Cl` gave a melting point of 163 to 165 °C.

Consider `COc1ccc2cc([C@H](C)C(=O)OCCNC(=O)OC(C)(C)C)ccc2c1`, for which the melting point was 82 to 84 °C.

The compound `CCOC(=O)c1cnn(-c2cc(Cl)cc(Cl)c2)c1S(C)(=O)=O` returned a melting point of 179 to 181 °C.

Compound `O=C(Nc1ccc2ccc(-c3cccc(Br)c3)nc2n1)c1cccc(Br)c1` had a melting point of 144 to 146 °C.

Regarding `CCOc1cc(N(CC)CC)ccc1-c1nc2n(C3CCCC3)[nH]c(CC)c-2c(=O)n1`, the melting point lay in the range of 138 to 139 °C.

The compound `O=C(C=Cc1ccccc1)c1ccc(OCc2ccccc2)cc1O` came in with a melting point of 116 to 118 °C.

Take `CC(C)Nc1nc2cc(Cl)c(Cl)cc2[nH]1`: the melting point was in the range of 218 to 220 °C.

On to `CC(=O)NC1CCN(c2ncc3ncnc(Nc4ccc(F)c(Cl)c4)c3n2)CC1`, for which the melting point fell in the range of 263 to 265 °C.

As to `CC(C)(C)c1cc(CCc2ccccc2NC(=O)NCC(C)(C)c2ccc(Cl)c(Cl)c2)cc(C(C)(C)C)c1O`, the melting point is 165 to 167 °C.

For `C#Cc1cccc(Nc2ncnc3c2ccn3CCOCCOC)c1`, the melting point lay in the range of 240 to 241 °C.

As to `Cc1oc(-c2ccccc2)nc1CCC(O)c1ccc(CCCC2OC(=O)NC2=O)cc1` (centres undefined), the melting point was in the range of 150 to 151 °C.

For the compound `O=C1[C@@H]2Cc3c([nH]c4ccccc34)[C@H](c3ccc4c(c3)OCO4)N2C(=O)N1Cc1ccccc1` (relative stereo), the melting point lay in the range of 208 to 210 °C.

In turn, `O=C(Nc1ccc(-n2nc(C(F)(F)F)cc2C(F)(F)F)cc1)c1ccccc1` gave a melting point of 177 to 178 °C.

The compound `CC(C)OC(OC(C)C)(O[C@H](C)Cn1cnc2c(Cl)nc(N)nc21)P(=O)(O)O` gave a melting point of 130 to 132 °C.

`Cc1cc(C)c(C(O)c2ccc(-n3ccnc3)c(Cl)c2)c(C)c1` (centres undefined) gave a melting point of 156 to 157 °C.

Regarding `COC(=O)C(Cl)=C(C)N`, the melting point was 68 to 70 °C.

`O=C1c2cccc3cc4ccccc4c(c23)C(=O)N1CCCNCCCNCCCN1C(=O)c2cccc3cc4ccccc4c(c23)C1=O` came in with a melting point of 140 °C.

`COc1ccccc1N1CCN(C(=O)[C@@H](Cc2cccnc2)NC(=O)OC(C)(C)C)CC1` showed a melting point of 142 °C.

With `O=C1C(=O)c2c(nc3ccc(Cl)cn23)-c2cccc(Cl)c21`, the melting point is above 260 °C.

`CC(=O)SCC1CN2CCCC(C(=O)OC(C)(C)C)N2C1=O` (centres undefined) registered a melting point of 92 to 93 °C.

For `CCC(=O)NS(=O)(=O)c1ccc(C2=C(c3ccccc3)C(=O)C(C)(C)O2)cc1Cl`, the melting point was 191 to 192 °C.

`NC(=NOC1CCCCO1)Nc1c(Cl)cccc1Cl` (centres undefined): the melting point fell in the range of 178 to 180 °C.

As to `CC12CCC(O)CC1CCC1C2CCC2(C)C1CCC2(SCc1ccccc1)SCc1ccccc1` (centres undefined), the melting point lay within 184 to 185 °C.

Take `O=[N+]([O-])c1ccc2ncccc2c1O`: the melting point was 245 °C.

The compound `O=C(O)Cc1cc(-c2ccc(Cl)cc2)n(-c2ccc(OCc3ccc4ccccc4n3)cc2)n1` had a melting point of 228 to 230 °C.

With `NC(=NC(=O)Cn1c(Cl)ccc1Cl)NC(=O)Cc1ccccc1`, the melting point lay within 181 to 183 °C.

Regarding `COc1ccc(Cl)cc1C(=O)Nc1ccc(C(F)(F)F)cc1`, the melting point amounted to 132 °C.

Turning to `COCC1CN(c2ccc3ccc(N)cc3c2)C(=O)O1` (centres undefined), the melting point was in the range of 98 to 99 °C.

Regarding `CCOP(=O)(/C=C/c1cn(-c2ccccc2)nc1OCc1ccc(OCc2nc(-c3ccco3)oc2C)cc1)OCC`, the melting point was 131 to 132 °C.

With `CC12CC(=O)C3C(CCC4CC(O)CCC43C)C1CCC2C(=O)COc1ccc([N+](=O)[O-])cc1` (centres undefined), the melting point was 186 to 187 °C.

On to `Cc1cccc(-c2coc3c(O)c(O)ccc3c2=O)c1`, for which the melting point was 268 °C.

On to `Cc1nn(-c2cccnc2)cc1[N+](=O)[O-]`, for which the melting point was in the range of 122 to 124 °C.

`CCOC(=O)c1c(C(=O)OC)c(O)c2cc(OC)c(OC)c(OC)c2c1-c1ccc(OC)c(OC)c1`: the melting point is 157 to 159 °C.

The compound `COC(=O)c1cnc(N2CCN(Cc3ccccc3)CC2)nc1OC` returned a melting point of 135 to 138 °C.

With `COC(=O)CCCCCCCCN1C(=O)C(c2ccccc2)N(c2ccccc2)C1=O` (centres undefined), the melting point lay in the range of 69 to 72 °C.

Turning to `O=[N+]([O-])c1ccc(-c2cnn3c(O)ncnc23)cc1`, the melting point is above 300 °C.
